Results as given in US20090221441A1, “THREE-DIMENSIONAL CELLULAR ARRAY CHIP AND PLATFORM FOR TOXICOLOGY ASSAYS” (Rensselaer Polytechnic Institute, priority 2005, published 2009).
Like-named read-outs stand apart in the source and are kept apart here.

Experiments:
MCF7 cells [1] = test: cells; conditions: Homo sapiens
MCF7 cells [2] = test: cells; conditions: Homo sapiens, MCF7, read-out: Calculated IC50, Alginate DataChip (MCF7)
Method: (§1) The cytotoxicity of drugs (or drug metabolites) was determined by staining the slide containing the cells with a Live/Dead test kit (Molecular Probes) that produces a green fluorescent response from living cells. At the end of the 3-day culture period post stamping, the three-dimensional cell chip (DataChip) was rinsed three times in PBS for 5 min each. One mL of a dye solution containing 0.5 μM calcein AM was applied to each three-dimensional cell chip using a glass slide with 1 mm thick perimeter gasket acting as a barrier to prevent loss of the dye solution.
(§2) Following incubation for 50 minutes at room temperature, excess dye in the collagen-gel drops was removed by incubating the slides in a petri dish containing 16 mL of PBS for 30 min on a gyratory shaker at 60 rpm. The three-dimensional cell chip was dried thoroughly with nitrogen. The three-dimensional cell chip was scanned with the GenePix® Professional 4200A scanner equipped with blue laser and standard blue filter to determine the green fluorescent intensity and was quantified from the scanning image using GenePix Pro 6.0 (Molecular Devices Co.).
(§3) Percent live cells=(FReaction/FMax)×100
(§4) where FReaction is the green fluorescence intensity of the reaction spot and FMax is the green fluorescence intensity of untreated fully viable cells.
(§5) The alginate-containing three-dimensional cell chip (DataChip) was prepared as follows. A poly-L-lysine (PLL)-barium mixture was prepared by mixing equal volume of sterile PLL (0.01 w/v % from Sigma) and barium chloride solution in distilled water (0.1 M from Sigma).
(§6) A suspension of cells in low-viscosity alginate (from Sigma) was prepared by mixing a Hep3B cell suspension in 5% FBS-supplemented DMEM with alginate solution in distilled water so that the final concentration of cells and alginate are 6×10^6 cells/mL and 1% (w/v), respectively.
(§7) Following spotting and drying of 10 nL PLL-barium mixture on the PS-MA-treated slide, 20-nL of the cell suspension (MCF7 or HepB3; cell density of 6×10^6 cells/mL or 120 cells per spot) in alginate was spotted atop each PLL-barium spot.

[3] = system: Hep3B human hepatoma cells; test: cells; conditions: read-out: Calculated IC50, Alginate DataChip (Hep3B)
Method: as §1, §2, §3, §4, §5, §6, §7

[4] = system: MCF7 human breast cancer cells; test: cells
Method: as §1

MCF7 cells [5] = test: cells; conditions: Homo sapiens; remark: listed apart in the source
[6] = Cytotoxicity of compounds and their P450-generated metabolites, Hep3B DataChip stamped with MetaChip; conditions: human
Method: as §1, §2, §3, §4
(§8) For efficient stamping, MTMOS-coated glass slides were prepared to contain a sol-gel barrier on the periphery of the slides.
(§9) To this end […] of methyltrimethoxysilane (MTMOS) sol was prepared by mixing 2 mL of MTMOS with 1 mL of HCl (10 mM) and sonicated for 10 min. The sol was spotted on the periphery of the MTMOS-coated slide and then the slide was baked in an oven for 30 min at 120° C.
(§10) The MetaChip was stored at −80° C. for 1 day prior to use. Cytotoxicity studies were performed by spotting 20 nL of test compound in distilled water (0-2 mM) onto the MetaChip spots and partially dried.
(§11) This was followed by stamping of the three-dimensional cell chip (DataChip) containing either MCF7 or Hep3B cells onto the MetaChip.
(§12) To this end, a MetaChip consisting of 20×54 alginate spots was prepared; each spot containing a single human P450 isoform (CYP1A2, CYP2D6, or CYP3A4), a mixture of the three isoforms, or no P450 as a test compound only control. Addition of test compounds was carried out by overlay spotting of solutions of these compounds onto the MetaChip, which was then stamped on top of the DataChip.
(§13) Using three DataChips in combination with three MetaChips, IC50 values for 27 compounds and their P450-generated metabolites against human Hep3B cells were determined. […] The three P450 isoforms were used along with an equimolar mixture of the three isoforms and a test compound only control without P450. The test compounds were added to the MetaChip, which was then stamped onto the DataChip and incubated for 6 h. This was followed by removing the DataChip, rinsing with growth medium, incubating in media for 3 days, and then stained for cell viability.

human Hep3B cells = test: in vitro
Method: as §1, §2, §3, §4, §8, §9, §10, §11, §12, §13

MCF7 cells [7] = conditions: read-out: IC50, 2D literature values; 2D cultures in 96-well plates, Refs 1-5; cited from earlier work
[8] = P450 activity determination with blue fluorogenic substrates in 384-well plate; format: biochemical, human
Method: To assess the intrinsic reactivity of P450s in alginate matrices, reactions were performed in wells of a 384-well plate. P450-containing alginate sol was prepared by dispensing 24 μL of P450 baculosomes (1 nmol P450/mL), 36 μL of distilled water, and 60 μL of alginate (2%) in distilled water. Five microliters of this solution were spotted onto 5 μL of the dried PLL-barium spot in a 384-well. Followed by storage of the P450-alginate gel drops at −80° C. for 1 day, 25 μL of blue fluorogenic substrates (BOMCC for CYP3A4 and EOMCC for CYP1A2 and CYP2D6) containing 250 μM NADP^+ and its regeneration system (8 mM glucose-6-phosphate and 1 U/mL glucose-6-phosphate dehydrogenase) in 50 mM potassium phosphate buffer (pH 8) were dispensed onto the thawed P450-alginate gel drop.
As a control, soluble P450 without alginate was also used. The blue fluorescent 7-hydroxycoumarin released by P450-catalyzed oxidation of BOMCC or EOMCC was monitored as a function of time using a BioAssay Reader HTS 7000 Plus (Perkin Elmer, Norwalk, Conn.) at an excitation wavelength of 430 nm and emission wavelength of 497 nm.

[9] = MCF7, read-out: Calculated IC50, 2D 96-well plate
[10] = MCF7, read-out: IC50 from 2D control in the 96-well plate
[11] = MCF7, read-out: Calculated IC50, Collagen DataChip (MCF7)
[12] = MCF7, read-out: IC50 evaluated on the DataChip
[13] = MCF7, read-out: Calculated IC50, 3D 96-well plate
[14] = MCF7, read-out: IC50 from 3D control
[15] = IC50, CYP1A2, Hep3B DataChip, MetaChip spots with CYP1A2
[16] = IC50, CYP2D6, Hep3B DataChip, MetaChip spots with CYP2D6
[17] = IC50, CYP3A4, Hep3B DataChip, MetaChip spots with CYP3A4
[18] = IC50, Mixture, Hep3B DataChip, equimolar mixture of CYP1A2, CYP2D6, CYP3A4
[19] = IC50, No P450, Hep3B DataChip, test compound only control without P450
[20] = Soluble enzyme (control, in solution)

**Q.** Which results are given for O=c1[nH]cc(F)c(=O)[nH]1 [5-Fluorouracil, 5-fluorouracil]?
**A.** IC50 (MCF7 cells [1]; [9]): 68.9 ± 13.5 µM; IC50 (MCF7 cells [1]; [10]): 41.7 ± 4.6 µM; IC50 (MCF7 cells [2]): 84.6 ± 18.7 µM; IC50 [3]: 66.1 ± 8.8 µM; IC50 [4, 11]: 82.4 ± 10.3 µM; IC50 [4, 12]: 51.5 ± 3.3 µM; IC50 (MCF7 cells [5]; [13]): 49 ± 3 µM; IC50 (MCF7 cells [5]; [14]): 34.7 ± 1.2 µM; IC50 at 6 h [6, 15]: 218 ± 44.3 µM; IC50 at 6 h [6, 16]: 132 ± 20.7 µM; IC50 at 6 h [6, 17]: 349 ± 72.3 µM; IC50 at 6 h [6, 18]: 436 ± 77 µM; IC50 at 6 h [6, 19]: 196 ± 27.2 µM; Activation or deactivation of the toxic response by CYP3A4 (human Hep3B cells): deactivated; IC50 (MCF7 cells [7]): 4.1 to 30 µM

**Q.** With COc1cccc2c1C(=O)c1c(O)c3c(c(O)c1C2=O)C[C@@](O)(C(=O)CO)C[C@@H]3O[C@H]1C[C@H](N)[C@H](O)[C@H](C)O1 [Doxorubicin, doxorubicin] as the molecule, how does the IC50 (MCF7 cells [1]; [9]) read?
**A.** 0.06 ± 0.01 µM

**Q.** What about the IC50 (MCF7 cells [1]; [10]) of the same molecule?
**A.** 0.0647 ± 0.0044 µM

**Q.** What about the IC50 (MCF7 cells [2]) of the same molecule?
**A.** 0.19 ± 0.08 µM

**Q.** What about the IC50 [3] of the same molecule?
**A.** 0.29 ± 0.09 µM

**Q.** And the IC50 [4, 11]?
**A.** 0.43 ± 0.09 µM

**Q.** And the IC50 [4, 12]?
**A.** 0.869 ± 0.057 µM

**Q.** And the IC50 (MCF7 cells [5]; [13])?
**A.** 0.23 ± 0.02 µM

**Q.** What about the IC50 (MCF7 cells [5]; [14]) of the same molecule?
**A.** 69.2 ± 3 µM

**Q.** What about the IC50 at 6 h [6, 15] of the same molecule?
**A.** 1.01 ± 0.22 µM

**Q.** What about the IC50 at 6 h [6, 16] of the same molecule?
**A.** 4.94 ± 1.36 µM

**Q.** And the IC50 at 6 h [6, 17]?
**A.** 19.3 ± 5.45 µM

**Q.** What about the IC50 at 6 h [6, 18] of the same molecule?
**A.** 9.71 ± 2.22 µM

**Q.** What about the IC50 at 6 h [6, 19] of the same molecule?
**A.** 0.69 ± 0.01 µM

**Q.** What about the IC50 at 6 h ([6]; IC50 values, Hep3B DataChip) of the same molecule?
**A.** < 1 µM

**Q.** What about the “Activation or deactivation of the toxic response by CYP2D6” value (human Hep3B cells) of the same molecule?
**A.** activated

**Q.** What about the IC50 (MCF7 cells [7]) of the same molecule?
**A.** 0.01 to 55 µM

B1: CYP2D6: human P450 isoform (baculosomes), soluble or encapsulated in alginate; assayed with EOMCC (protein, UniProt P10635 1-497, looked up)
Cytochrome P450 2D6: MGLEALVPLAVIVAIFLLLVDLMHRRQRWAARYPPGPLPLPGLGNLLHVDFQNTPYCFDQLRRRFGDVFSLQLAWTPVVVLNGLAAVREALVTHGEDTADRPPVPITQILGFGPRSQGVFLARYGPAWREQRRFSVSTLRNLGLGKKSLEQWVTEEAACLCAAFANHSGRPFRPNGLLDKAVSNVIASLTCGRRFEYDDPRFLRLLDLAQEGLKEESGFLREVLNAVPVLLHIPALAGKVLRFQKAFLTQLDELLTEHRMTWDPAQPPRDLTEAFLAEMEKAKGNPESSFNDENLRIVVADLFSAGMVTTSTTLAWGLLLMILHPDVQRRVQQEIDDVIGQVRRPEMGDQAHMPYTTAVIHEVQRFGDIVPLGVTHMTSRDIEVQGFRIPKGTTLITNLSSVLKDEAVWEKPFRFHPEHFLDAQGHFVKPEAFLPFSAGRRACLGEPLARMELFLFFTSLLQHFSFSVPTGQPRPSHHGVFAFLVSPSPYELCAVPR
**Q.** For B1, which Km ([8]; In Alginate) is on record?
**A.** 6.37 ± 1.25 µM

**Q.** And the kcat ([8]; In Alginate)?
**A.** 0.0012 ± 0.00017 s⁻¹

**Q.** And the Km [8, 20]?
**A.** 12.5 ± 4.64 µM

**Q.** What about the kcat [8, 20] of the same molecule?
**A.** 0.002 ± 0.0005 s⁻¹

B2: CYP1A2: human P450 isoform (baculosomes), soluble or encapsulated in alginate; assayed with EOMCC (protein, UniProt P05177 2-516, looked up)
Cytochrome P450 1A2: ALSQSVPFSATELLLASAIFCLVFWVLKGLRPRVPKGLKSPPEPWGWPLLGHVLTLGKNPHLALSRMSQRYGDVLQIRIGSTPVLVLSRLDTIRQALVRQGDDFKGRPDLYTSTLITDGQSLTFSTDSGPVWAARRRLAQNALNTFSIASDPASSSSCYLEEHVSKEAKALISRLQELMAGPGHFDPYNQVVVSVANVIGAMCFGQHFPESSDEMLSLVKNTHEFVETASSGNPLDFFPILRYLPNPALQRFKAFNQRFLWFLQKTVQEHYQDFDKNSVRDITGALFKHSKKGPRASGNLIPQEKIVNLVNDIFGAGFDTVTTAISWSLMYLVTKPEIQRKIQKELDTVIGRERRPRLSDRPQLPYLEAFILETFRHSSFLPFTIPHSTTRDTTLNGFYIPKKCCVFVNQWQVNHDPELWEDPSEFRPERFLTADGTAINKPLSEKMMLFGMGKRRCIGEVLAKWEIFLFLAILLQQLEFSVPPGVKVDLTPIYGLTMKHARCEHVQARLRFSIN
**Q.** With B2 as the molecule, how does the Km ([8]; In Alginate) read?
**A.** 3.61 ± 0.43 µM

**Q.** And the kcat ([8]; In Alginate)?
**A.** 0.0085 ± 0.00517 s⁻¹

**Q.** What about the Km [8, 20] of the same molecule?
**A.** 5.78 ± 0.8 µM

**Q.** And the kcat [8, 20]?
**A.** 0.0225 ± 0.0013 s⁻¹
